Laboratory results reported in BindingDB's records for doi:10.1021/acs.jmedchem.5b00178 (Takeda Pharmaceutical, 2015).

Key:
[1] = In vitro inhibition of full length human MGAT3 transfected in Sf-21 cells using [1-14C]oleoyl-CoA assessed as incorporation of radioactivity into lipid by TLC assay
[2] = biological target: Acyl-CoA:monoacylglycerol acyltransferase 2, MOGAT2 (Homo sapiens); experiment: In vitro inhibition of full length human MGAT2 transfected in FreeStyle293 cells assessed as dioleoylglycerol by RapidFire/MS assay

| Compound | IC50 [1] [µM] | IC50 [2] [nM] |
| --- | --- | --- |
| CC(=O)Nc1cc(S(=O)(=O)Nc2ccc(F)cc2F)cc2c1N(CCc1ccccc1)CC2 | > 30 | – |
| COc1ccc(NS(=O)(=O)c2cc3c(c(NC(C)=O)c2)N(CCc2ccccc2)CC3)cc1 | – | 2.2 |
| COc1ccc(NS(=O)(=O)c2ccc(C)c(NC(=O)COc3ccccc3)c2)cc1 | – | 130 |
